Test results published in patent US20080114041A1, “Benzothiazolesulfonamides” (AstraZeneca AB, priority 2004, published 2008).

Target: T1, hVR1 (Homo sapiens, UniProt Q8NER1)
T1 construct: expressed in transfected cells
Test: hVR1 FLIPR (Fluorometric Image Plate Reader) screening assay
Assay type: cell-based
Conditions: transfected CHO cells stably expressing hVR1; inhibition of calcium increase after agonist (50 nM capsaicin or MES buffer pH 5.2); agonist not given
Description: 1. hVR1 FLIPR (Fluorometric Image Plate Reader) Screening Assay
Transfected CHO cells, stably expessing hVR1 (15,000 cells/well) are seeded in 50 ul media in a black clear bottom 384 plate (Greiner) and grown in a humidified incubator (37° C., 2% CO2), 24-30 hours prior to experiment.
Subsequently, the media is removed from the cell plate by inversion and 2 μM Fluo-4 is added using a multidrop (Labsystems). Following the 40 minutes dye incubation in the dark at 37° C. and 2% CO2, the extracellular dye present is washed away using an EMBLA (Scatron), leaving the cells in 40 ul of assay buffer (1×HBSS, 10 mM D-Glucose, 1 mM CaCl2, 10 mM HEPES, 10×7.5% NaHCO3 and 2.5 mM Probenecid).
FLIPR Assay—IC50 Determination Protocol
For IC50 determinations the fluorescence is read using FLIPR filter 1 (em […]). A cellular baseline recording is taken for 30 seconds, followed by a 20 μl addition of 10, titrated half-log concentrations of the test compound, yielding cellular concentration ranging from 3 μM to 0.1 nM. […] This consequently leading to a reduction in fluorescence signal and providing a reduced fluorescence reading, compared with no compound, buffer controls. Data is exported by the FLIPR program as a sum of fluorescence calculated under the curve upon the addition of capsaicin. […]

T1 sequence (Q8NER1 whole entry): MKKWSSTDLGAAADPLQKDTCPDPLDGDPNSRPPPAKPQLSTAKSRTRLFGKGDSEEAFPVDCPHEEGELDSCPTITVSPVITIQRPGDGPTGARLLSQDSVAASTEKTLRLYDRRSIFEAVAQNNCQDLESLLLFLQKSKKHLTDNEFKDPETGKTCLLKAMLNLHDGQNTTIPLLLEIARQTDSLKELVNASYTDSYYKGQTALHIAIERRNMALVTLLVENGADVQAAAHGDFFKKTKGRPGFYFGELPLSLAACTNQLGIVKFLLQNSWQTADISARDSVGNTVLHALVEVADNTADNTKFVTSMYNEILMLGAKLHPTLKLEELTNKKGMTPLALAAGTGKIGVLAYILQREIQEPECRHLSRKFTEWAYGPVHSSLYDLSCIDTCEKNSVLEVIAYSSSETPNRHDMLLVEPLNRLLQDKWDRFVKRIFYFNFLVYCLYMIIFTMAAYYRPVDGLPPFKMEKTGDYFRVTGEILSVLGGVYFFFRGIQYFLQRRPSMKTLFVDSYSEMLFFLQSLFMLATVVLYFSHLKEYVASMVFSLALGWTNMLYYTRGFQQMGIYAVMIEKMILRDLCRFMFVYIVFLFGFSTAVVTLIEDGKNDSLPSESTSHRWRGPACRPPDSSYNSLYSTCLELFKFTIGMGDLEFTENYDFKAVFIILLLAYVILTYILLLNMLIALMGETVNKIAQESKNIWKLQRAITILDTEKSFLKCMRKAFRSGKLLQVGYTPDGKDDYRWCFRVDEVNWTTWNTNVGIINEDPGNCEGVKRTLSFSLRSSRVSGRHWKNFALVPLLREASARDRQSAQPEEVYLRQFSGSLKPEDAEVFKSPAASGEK

IC50: 2870 nM
SMILES: O=S(=O)(NCc1cccc(C(F)(F)F)c1)c1ccc2sc(CO)nc2c1 [Compound 5, 2-(hydroxymethyl)-N-[3-(trifluoromethyl)benzyl]-1,3-benzothiazole-5-sulfonamide]
